# Measured values taken from ChEMBL document CHEMBL5465560, “Selectivity Literature for EUbOPEN Chemogenomic Library” (2024).
# Experiments:
# [1] = biological target: Cyclin-dependent kinase-like 1 (Homo sapiens) (UniProt Q00532); test: Selectivity interaction (Kinase panel (DSF assay)) EUB0001558a CDKL1
# [2] = biological target: T1, Serine/threonine-protein kinase Nek2 (Homo sapiens) (UniProt P51955); test: Selectivity interaction (KinomeScan (DiscoverX)) EUB0000229b NEK2; details: at 10 µM
# T1 sequence (whole entry): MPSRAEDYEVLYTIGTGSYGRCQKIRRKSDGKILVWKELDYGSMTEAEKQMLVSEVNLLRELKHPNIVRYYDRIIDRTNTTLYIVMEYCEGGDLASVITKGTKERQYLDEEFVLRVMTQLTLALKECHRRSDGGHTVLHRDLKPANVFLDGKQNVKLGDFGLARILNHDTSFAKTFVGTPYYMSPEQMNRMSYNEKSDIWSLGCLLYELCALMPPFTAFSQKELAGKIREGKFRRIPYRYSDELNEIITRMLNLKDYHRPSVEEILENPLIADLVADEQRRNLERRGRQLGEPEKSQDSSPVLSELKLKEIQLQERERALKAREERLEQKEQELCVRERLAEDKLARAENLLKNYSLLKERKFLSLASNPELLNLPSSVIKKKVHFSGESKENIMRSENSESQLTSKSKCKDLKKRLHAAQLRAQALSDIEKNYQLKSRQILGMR
# [3] = biological target: Tyrosine-protein kinase SYK (Homo sapiens, UniProt P43405); test: Selectivity interaction (KinomeScan (DiscoverX)) EUB0000229b SYK; details: at 10 µM
# [4] = biological target: Death-associated protein kinase 1 (Homo sapiens, UniProt P53355); test: Selectivity interaction (Upstate Kinase Profiler service (Millipore)) EUB0000056c DAPK1; details: at 1 µM
# [5] = biological target: BDNF/NT-3 growth factors receptor (Homo sapiens) (UniProt Q16620); test: Selectivity interaction (ProQinase) EUB0000171b NTRK2
# Sequence of BDNF/NT-3 growth factors receptor (Homo sapiens) (Q16620 32-822 limits assumed): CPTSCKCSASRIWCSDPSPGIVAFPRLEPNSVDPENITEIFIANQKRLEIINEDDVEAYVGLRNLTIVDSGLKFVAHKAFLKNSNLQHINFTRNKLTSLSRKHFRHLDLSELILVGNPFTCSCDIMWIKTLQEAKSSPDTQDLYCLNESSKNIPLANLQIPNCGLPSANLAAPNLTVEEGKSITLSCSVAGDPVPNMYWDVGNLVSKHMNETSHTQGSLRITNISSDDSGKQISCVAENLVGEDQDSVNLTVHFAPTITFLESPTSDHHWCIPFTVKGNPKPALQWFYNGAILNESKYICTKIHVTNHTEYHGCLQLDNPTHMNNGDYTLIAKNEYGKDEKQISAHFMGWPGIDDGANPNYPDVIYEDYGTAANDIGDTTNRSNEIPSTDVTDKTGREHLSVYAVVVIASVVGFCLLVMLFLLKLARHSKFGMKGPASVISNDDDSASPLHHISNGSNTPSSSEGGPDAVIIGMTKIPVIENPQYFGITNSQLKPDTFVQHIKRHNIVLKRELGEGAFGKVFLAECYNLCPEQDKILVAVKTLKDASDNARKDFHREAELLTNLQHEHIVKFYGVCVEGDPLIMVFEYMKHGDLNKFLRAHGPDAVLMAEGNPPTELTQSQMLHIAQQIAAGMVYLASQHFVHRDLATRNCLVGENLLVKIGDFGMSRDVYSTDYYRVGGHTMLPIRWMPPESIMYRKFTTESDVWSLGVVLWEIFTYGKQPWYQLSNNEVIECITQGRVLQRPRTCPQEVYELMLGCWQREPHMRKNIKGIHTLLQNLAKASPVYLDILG
# [6] = biological target: Platelet-derived growth factor receptor beta (Homo sapiens, UniProt P09619); test: Selectivity interaction (KinomeScan (DiscoverX)) EUB0001079a PDGFRB; details: at 1 µM
# [7] = biological target: T2, Serine/threonine-protein kinase greatwall (Homo sapiens) (UniProt Q96GX5); test: Selectivity interaction (Kinase panel (KiNativ target engagement assay in Jurkat cells)) EUB0001635a MASTL; type: cell-based; details: at 1 µM
# T2 sequence (whole entry): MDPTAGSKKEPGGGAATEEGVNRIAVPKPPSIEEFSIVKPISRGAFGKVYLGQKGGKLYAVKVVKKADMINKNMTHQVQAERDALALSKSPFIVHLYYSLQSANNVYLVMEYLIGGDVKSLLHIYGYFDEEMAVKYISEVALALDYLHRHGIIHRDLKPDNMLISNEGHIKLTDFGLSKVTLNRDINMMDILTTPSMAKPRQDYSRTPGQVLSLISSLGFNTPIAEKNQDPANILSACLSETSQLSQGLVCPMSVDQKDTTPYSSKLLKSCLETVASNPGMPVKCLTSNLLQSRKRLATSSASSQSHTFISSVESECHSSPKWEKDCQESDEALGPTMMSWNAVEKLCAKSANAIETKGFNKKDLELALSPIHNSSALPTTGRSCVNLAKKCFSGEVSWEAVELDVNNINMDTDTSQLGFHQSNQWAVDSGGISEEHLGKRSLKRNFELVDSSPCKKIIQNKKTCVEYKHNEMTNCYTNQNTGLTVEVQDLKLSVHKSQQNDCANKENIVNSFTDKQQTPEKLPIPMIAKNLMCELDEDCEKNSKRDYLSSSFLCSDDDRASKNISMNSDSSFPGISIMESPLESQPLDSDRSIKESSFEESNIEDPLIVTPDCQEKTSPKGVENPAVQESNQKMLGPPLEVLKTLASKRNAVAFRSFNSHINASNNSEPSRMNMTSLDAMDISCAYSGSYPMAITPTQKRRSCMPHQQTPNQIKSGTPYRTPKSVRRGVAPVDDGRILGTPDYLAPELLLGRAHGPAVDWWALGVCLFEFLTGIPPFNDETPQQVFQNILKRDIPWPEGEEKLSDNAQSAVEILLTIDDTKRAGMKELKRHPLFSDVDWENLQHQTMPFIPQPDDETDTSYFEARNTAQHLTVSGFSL
# [8] = biological target: STE20-like serine/threonine-protein kinase (Homo sapiens, UniProt Q9H2G2); test: Selectivity interaction (KinomeScan (DiscoverX)) EUB0000666a SLK; details: at 10 µM
# Sequence of STE20-like serine/threonine-protein kinase (Q9H2G2 whole entry, looked up): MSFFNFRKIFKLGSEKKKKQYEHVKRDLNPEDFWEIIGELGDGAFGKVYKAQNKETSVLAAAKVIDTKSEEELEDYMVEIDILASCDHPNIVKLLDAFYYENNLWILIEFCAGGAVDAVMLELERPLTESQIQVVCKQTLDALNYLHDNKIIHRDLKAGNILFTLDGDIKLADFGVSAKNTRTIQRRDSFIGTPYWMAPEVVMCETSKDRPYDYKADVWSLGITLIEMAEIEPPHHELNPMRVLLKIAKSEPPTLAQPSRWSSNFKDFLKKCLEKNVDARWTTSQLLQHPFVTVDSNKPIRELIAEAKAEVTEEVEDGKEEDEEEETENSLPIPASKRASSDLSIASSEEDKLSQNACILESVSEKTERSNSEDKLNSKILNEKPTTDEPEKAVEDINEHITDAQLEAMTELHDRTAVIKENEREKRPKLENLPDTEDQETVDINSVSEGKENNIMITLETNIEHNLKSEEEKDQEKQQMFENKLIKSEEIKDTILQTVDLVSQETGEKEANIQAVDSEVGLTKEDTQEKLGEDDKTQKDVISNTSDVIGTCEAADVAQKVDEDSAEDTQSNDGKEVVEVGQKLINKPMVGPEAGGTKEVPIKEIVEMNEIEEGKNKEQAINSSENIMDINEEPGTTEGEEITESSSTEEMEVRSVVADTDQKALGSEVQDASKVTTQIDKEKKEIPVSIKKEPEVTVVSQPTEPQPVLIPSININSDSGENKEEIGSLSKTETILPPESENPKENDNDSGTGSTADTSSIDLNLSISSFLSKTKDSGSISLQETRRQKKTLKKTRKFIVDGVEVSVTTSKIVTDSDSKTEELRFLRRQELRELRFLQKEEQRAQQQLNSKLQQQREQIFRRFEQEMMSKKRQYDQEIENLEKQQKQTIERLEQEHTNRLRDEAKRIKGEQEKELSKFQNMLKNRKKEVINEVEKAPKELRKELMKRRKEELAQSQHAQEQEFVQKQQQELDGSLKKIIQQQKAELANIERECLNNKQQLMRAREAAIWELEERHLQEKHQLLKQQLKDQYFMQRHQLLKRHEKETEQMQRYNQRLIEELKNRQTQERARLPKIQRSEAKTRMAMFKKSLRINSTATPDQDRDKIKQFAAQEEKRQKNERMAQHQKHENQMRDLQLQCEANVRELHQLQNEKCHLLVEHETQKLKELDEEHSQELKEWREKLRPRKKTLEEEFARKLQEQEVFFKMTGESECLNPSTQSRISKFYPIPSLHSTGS
# [9] = biological target: Serine/threonine-protein kinase pim-3 (Homo sapiens) (UniProt Q86V86); test: Selectivity interaction (Kinase panel (DSF assay)) EUB0001489b PIM3
# [10] = biological target: Casein kinase I isoform gamma-2 (Homo sapiens) (UniProt P78368); details: at 10 µM
# Sequence of Casein kinase I isoform gamma-2 (Homo sapiens) (P78368 whole entry, looked up, canonical isoform): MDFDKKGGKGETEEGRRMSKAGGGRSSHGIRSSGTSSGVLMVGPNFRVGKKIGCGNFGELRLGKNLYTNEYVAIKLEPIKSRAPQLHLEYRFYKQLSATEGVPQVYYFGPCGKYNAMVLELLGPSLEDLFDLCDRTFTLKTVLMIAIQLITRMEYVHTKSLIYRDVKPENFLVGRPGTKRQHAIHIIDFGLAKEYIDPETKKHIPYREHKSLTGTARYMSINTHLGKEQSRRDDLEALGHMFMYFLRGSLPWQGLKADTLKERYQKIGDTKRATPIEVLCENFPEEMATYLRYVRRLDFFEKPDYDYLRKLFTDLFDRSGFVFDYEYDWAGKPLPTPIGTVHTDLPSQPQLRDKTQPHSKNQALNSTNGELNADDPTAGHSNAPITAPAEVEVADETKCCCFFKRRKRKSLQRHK
# [11] = biological target: Serine/threonine-protein kinase MARK2 (Homo sapiens) (UniProt Q7KZI7); test: Selectivity interaction (ActivX KiNativ screen (kinase selectivity in THP-1 cell lysates)) EUB0000639a MARK2; type: subcellular; details: lysate, at 0.01 µM
# Sequence of Serine/threonine-protein kinase MARK2 (Homo sapiens) (Q7KZI7 whole entry): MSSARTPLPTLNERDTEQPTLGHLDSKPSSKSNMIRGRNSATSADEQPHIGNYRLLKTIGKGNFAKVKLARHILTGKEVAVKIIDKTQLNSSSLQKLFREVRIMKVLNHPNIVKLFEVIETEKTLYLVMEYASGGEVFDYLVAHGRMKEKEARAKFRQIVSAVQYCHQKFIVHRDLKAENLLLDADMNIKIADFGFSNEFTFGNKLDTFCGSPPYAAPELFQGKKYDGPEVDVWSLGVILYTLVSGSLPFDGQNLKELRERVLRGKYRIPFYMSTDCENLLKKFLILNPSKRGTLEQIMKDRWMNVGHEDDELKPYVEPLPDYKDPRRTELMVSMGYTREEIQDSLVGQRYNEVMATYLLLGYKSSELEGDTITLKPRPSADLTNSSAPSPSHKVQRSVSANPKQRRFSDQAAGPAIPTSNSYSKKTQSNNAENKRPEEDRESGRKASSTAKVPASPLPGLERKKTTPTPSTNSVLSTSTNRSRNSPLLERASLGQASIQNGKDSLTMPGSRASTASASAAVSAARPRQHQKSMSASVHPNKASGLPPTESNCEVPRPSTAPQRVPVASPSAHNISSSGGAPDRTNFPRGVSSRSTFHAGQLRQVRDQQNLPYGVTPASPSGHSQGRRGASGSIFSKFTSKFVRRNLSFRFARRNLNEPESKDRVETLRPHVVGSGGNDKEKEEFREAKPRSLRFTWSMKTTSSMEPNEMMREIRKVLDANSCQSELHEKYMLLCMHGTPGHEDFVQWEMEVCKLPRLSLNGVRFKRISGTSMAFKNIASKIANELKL
# [12] = biological target: Serine/threonine-protein kinase Nek7 (Homo sapiens) (UniProt Q8TDX7); test: Selectivity interaction (KinomeScan (DiscoverX)) EUB0000595a NEK7; details: at 10 µM
# Sequence of Serine/threonine-protein kinase Nek7 (Homo sapiens) (Q8TDX7 whole entry, looked up): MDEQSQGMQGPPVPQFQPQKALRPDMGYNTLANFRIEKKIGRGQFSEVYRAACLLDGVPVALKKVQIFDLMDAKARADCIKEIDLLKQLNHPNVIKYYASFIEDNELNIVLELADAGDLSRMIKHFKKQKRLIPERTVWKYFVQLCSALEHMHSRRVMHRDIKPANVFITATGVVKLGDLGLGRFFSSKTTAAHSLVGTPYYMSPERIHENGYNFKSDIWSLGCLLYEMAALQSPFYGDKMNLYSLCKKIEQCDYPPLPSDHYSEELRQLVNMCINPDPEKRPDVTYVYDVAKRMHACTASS
# [13] = biological target: Myosin light chain kinase 2, skeletal/cardiac muscle (Homo sapiens) (UniProt Q9H1R3); test: Selectivity interaction (KinomeScan (DiscoverX)) EUB0000595a MYLK2; details: at 10 µM
# Sequence of Myosin light chain kinase 2, skeletal/cardiac muscle (Homo sapiens) (Q9H1R3 whole entry): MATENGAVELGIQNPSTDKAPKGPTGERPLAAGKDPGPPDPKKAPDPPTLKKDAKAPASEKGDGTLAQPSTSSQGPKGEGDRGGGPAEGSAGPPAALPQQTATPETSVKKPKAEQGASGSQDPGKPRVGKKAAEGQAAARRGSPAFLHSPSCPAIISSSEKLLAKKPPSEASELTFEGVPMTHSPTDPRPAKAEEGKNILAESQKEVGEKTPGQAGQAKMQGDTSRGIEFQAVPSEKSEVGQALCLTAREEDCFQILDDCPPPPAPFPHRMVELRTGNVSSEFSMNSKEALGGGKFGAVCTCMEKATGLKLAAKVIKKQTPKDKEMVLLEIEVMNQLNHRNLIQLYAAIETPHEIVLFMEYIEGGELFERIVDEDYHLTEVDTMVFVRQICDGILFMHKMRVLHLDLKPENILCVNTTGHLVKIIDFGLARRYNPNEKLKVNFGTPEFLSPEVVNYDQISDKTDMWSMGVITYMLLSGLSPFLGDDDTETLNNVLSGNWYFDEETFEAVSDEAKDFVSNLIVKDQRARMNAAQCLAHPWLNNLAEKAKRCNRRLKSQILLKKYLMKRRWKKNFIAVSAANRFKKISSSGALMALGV
# [14] = biological target: T3, Dual specificity mitogen-activated protein kinase kinase 4 (Homo sapiens) (UniProt P45985); test: Selectivity interaction (KinomeScan (DiscoverX)) EUB0000618a MAP2K4; details: at 10 µM
# T3 sequence (whole entry): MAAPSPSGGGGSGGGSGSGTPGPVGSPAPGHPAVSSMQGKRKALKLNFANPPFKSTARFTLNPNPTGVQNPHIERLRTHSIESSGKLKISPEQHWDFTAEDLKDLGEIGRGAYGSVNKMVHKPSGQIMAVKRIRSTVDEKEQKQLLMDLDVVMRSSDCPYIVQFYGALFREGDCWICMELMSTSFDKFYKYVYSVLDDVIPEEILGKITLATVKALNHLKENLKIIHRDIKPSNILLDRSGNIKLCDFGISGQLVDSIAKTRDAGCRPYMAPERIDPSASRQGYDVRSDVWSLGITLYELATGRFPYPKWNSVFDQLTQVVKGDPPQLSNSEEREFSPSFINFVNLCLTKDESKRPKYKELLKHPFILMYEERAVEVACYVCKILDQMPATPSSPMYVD
# Sequence of Cyclin-dependent kinase-like 1 (Homo sapiens) (Q00532 whole entry): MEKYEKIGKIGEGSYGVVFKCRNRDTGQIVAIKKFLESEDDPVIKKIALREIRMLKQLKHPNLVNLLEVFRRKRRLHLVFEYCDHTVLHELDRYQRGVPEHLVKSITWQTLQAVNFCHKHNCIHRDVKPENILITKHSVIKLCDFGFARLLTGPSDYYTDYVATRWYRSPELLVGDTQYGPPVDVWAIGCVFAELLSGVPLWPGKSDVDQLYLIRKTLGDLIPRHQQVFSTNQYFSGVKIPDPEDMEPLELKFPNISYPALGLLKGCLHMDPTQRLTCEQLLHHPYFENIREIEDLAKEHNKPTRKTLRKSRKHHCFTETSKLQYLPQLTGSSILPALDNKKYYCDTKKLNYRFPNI
structure (smiles),measurement,setting,value
CC(C)(O)[C@H](F)CN1Cc2cc(NC(=O)c3cnn4cccnc34)c(N3CCOCC3)cc2C1=O,dTM,[1],-0.4 K
COc1cc(N(C)c2ccnc3ccc(C(F)(F)F)cc23)cc(OC)c1OC,% binding,[2],92%
same,% binding,[3],94%
Cc1ccc(-c2ccc3c(ccc4sc5c(c43)NC[C@@H](C)NC5=O)n2)cn1,% of inhibition,[4],11%
C=CC(=O)Nc1cccc(C(=O)Nc2ccc(Nc3cc(-c4[nH]c(SC)nc4C)ccn3)cc2)c1,% of control,[5]; at 1 µM,89%
same,% of control,[5]; at 5 µM,81%
Nc1cnc(N2CCc3cc(S(=O)(=O)Nc4c(F)cc(Cl)cc4F)cc(N4CCCC4=O)c32)nc1 [TP-020n],% of control,[6],100%
C=CC(=O)Nc1ccc(C(=O)Nc2[nH]nc3c2CN(C(=O)N[C@H](CN(C)C)c2ccccc2)C3(C)C)cc1,% of engagement,[7],5.2%
O=C(NOC[C@H](O)CO)c1ccc(F)c(F)c1Nc1ccc(I)cc1F,% of control,[8],93%
CN1CCN(C(=O)c2ccc3cc2OCCOCCNc2ccn4ncc-3c4n2)CC1,dTM,[9],2.1 K
Cc1cc([C@@H](C)Nc2ccccc2C(=O)O)c2nc(N3CCOCC3)cc(=O)n2c1 [AZD-6482],% of control,[10],88%
CC[C@@H]1[C@H](F)C(=O)N[C@@H]1COc1nccc2cc(C(N)=O)c(OC)cc12 [ZIMLOVISERTIB],% of inhibition,[11],12.7%
COCC(=O)NC/C=C/c1ccc2ncnc(Nc3ccc(Oc4ccc(C)nc4)c(C)c3)c2c1 [CP-724714],% of control,[12],73%
same,% of control,[13],100%
O[C@H]1CC[C@H](Nc2ncc3nc(Nc4c(F)cc(F)cc4F)n([C@H]4CCOC4)c3n2)CC1,% of control,[14],27%
